Reference: patent US20230286973A1, “PROTEIN SECRETION INHIBITORS” (KEZAR LIFE SCIENCES, priority 2020, published 2023)

Experiments:
[1] = system: TNFα-FL/Gaussia Luciferase; assay: Dox Induced TNFα-FL-Gluc Assay; type: cell-based; details: for IC50: 24 hr Dox induction, 293FRT/TO cells, read-out: 24 hr Dox Inducible TNFaFLGluc 293FRT/TO: Mean IC50; for 24 hr Dox Inducible TNFaFLGluc 293FRT/TO: TNF/PD1: ratio of TNFaFLGluc IC50 to PD1ssGluc IC50
Method in brief: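 Compound was added with doxycycline to cells plated a day earlier, incubating at 37° C under 5% CO2. The reporter line is 293 T-REx expressing a TNFα (1-233)–Gaussia luciferase fusion under tetracycline-regulated control.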

[2] = system: multiple myeloma cell line U266B1; assay: U266 Cell Viability Assay; type: cell-based, human; details: Homo sapiens, U-266, 48 h, U266B1 cells, Celltiter-Glo
Method in brief: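 CellTiter-Glo luminescence was read after a 48 h compound exposure (37 °C, 5% CO2) of human U266B1 myeloma cells grown in 10% FBS-supplemented RPMI 1640. Data for structures shown without defined stereochemistry refer to stereoisomer mixtures.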

[3] = system: IL-2-FL/Gaussia Luciferase; assay: Dox Induced IL2-FL-Gluc Assay; type: cell-based; details: for IC50: 24 hr Dox induction, 293FRT/TO cells, read-out: 24 hr Dox Inducible IL2FLGluc 293FRT/TO: Mean IC50; for 24 hr Dox Inducible IL2FLGluc 293FRT/TO: IL2/PD1: ratio of IL2FLGluc IC50 to PD1ssGluc IC50
Method in brief: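 Compounds in DMSO/medium with doxycycline were applied to a 293 T-REx stable line expressing an IL-2 (aa 1-153)–Gaussia luciferase fusion under tetracycline-regulated control, cells seeded one day earlier; incubation at 37 °C, 5% CO2. Structures drawn without stereochemistry were tested as stereoisomer mixtures.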

[4] = system: multiple myeloma cell line NCI-H929; assay: H929 Cell Viability Assay; type: cell-based, human; details: Homo sapiens, NCI-H929, 48 h, NCI-H929 cells, Celltiter-Glo
Method in brief: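 Luminescent CellTiter-Glo read-out of viability after a 48 h exposure (37° C, 5% CO2) of NCI-H929 myeloma cells to compound dilutions in RPMI 1640 plus 10% FBS. Data for structures drawn without stereochemistry refer to stereoisomer mixtures.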

[5] = system: PD1-ss+10aa/Gaussia Luciferase; assay: Dox-Induced PD1-ss-Gluc Assay; type: cell-based; details: 24 hr Dox induction; 293FRT/TO cells; read-out: 24 hr Dox Inducible PD1ssGluc 293FRT/TO: Mean IC50
Method in brief: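 Compounds were added in DMSO/media with doxycycline and incubated at 37 °C, 5% CO2, on 293 T-REx cells plated one day earlier. These cells stably express, under tetracycline-regulated control, a Gaussia luciferase fused to the PD1 signal peptide plus 10 residues. Structures drawn without stereochemistry were tested as stereoisomer mixtures.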

[6] = system: HER3-ss+4aa/Gaussia Luciferase; assay: Dox-Induced Her3-ss-Gluc Assay; type: cell-based; details: 24 hr Dox induction; 293FRT/TO cells; read-out: 24 hr Dox Inducible Her3(ss + 4)Gluc 293FRT/TO: Mean IC50
Method in brief: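 Compounds were diluted in DMSO/media containing doxycycline. They were added to Flp-In 293 T-REx cells plated the previous day, then incubated at 37 °C under 5% CO2. These cells stably express, under T-REx control, Gaussia luciferase fused to the HER3 signal sequence plus 4 amino acids.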

[7] = Liver Microsome Stability Assay (human); details: human liver microsomes, with NADPH, 1.0 uM compound
Experimental: (§1) Stability of a compound was assessed in the presence of liver microsomes from various sources—mouse, rat, monkey and human liver microsomes. 1.0 uM compound, 0.4% DMSO in 0.1 M Potassium Phosphate with 1.0 mg/mL liver microsomes, were incubated at 37° C. with or without 1 mM NADPH. The samples were quenched at 0, and 30 minutes.

[8] = Liver Microsome Stability Assay (rat); details: rat liver microsomes, with NADPH, 1.0 uM compound
Experimental: as §1

[9] = Liver Microsome Stability Assay (mouse); details: mouse liver microsomes, with NADPH, 1.0 uM compound
Experimental: as §1

[10] = Liver Microsome Stability Assay (monkey); details: monkey liver microsomes, with NADPH, 1.0 uM compound
Experimental: as §1

Row | Structure (SMILES) | IC50 [1] [µM] | EC50 [2] [µM] | IC50 [3] [µM] | EC50 [4] [µM] | IC50 [5] [µM] | IC50 [6] [µM] | Liver Microsome Stability (Multiple Species): Human - % Remaining after 30 min w/NADPH [7] [%] | Liver Microsome Stability (Multiple Species): Rat - % Remaining after 30 min w/NADPH [8] [%] | Liver Microsome Stability (Multiple Species): Mouse - % Remaining after 30 min w/NADPH [9] [%] | Liver Microsome Stability (Multiple Species): Monkey - % Remaining after 30 min w/NADPH [10] [%] | 24 hr Dox Inducible TNFaFLGluc 293FRT/TO: TNF/PD1 [1] | 24 hr Dox Inducible IL2FLGluc 293FRT/TO: IL2/PD1 [3]
1 | CC(C)n1cnc(/C=C/Cc2csc(NC(=O)c3cccn3Cc3ccnc(F)c3)n2)c1 [Compound B106, (E)-1-((2-fluoropyridin-4-yl)methyl)-N-(4-(3-(1-isopropyl-1H-imidazol-4-yl)allyl)thiazol-2-yl)-1H-pyrrole-2-carboxamide] | > 25 | > 25 | 3.01 | > 25 | 0.692 | 1.28 | 0.59 | 5.01 | 0.95 | 0.06 | >36.1 | 4.3
2 | CC(C#N)n1cnc(/C=C/c2csc(NC(=O)c3cccn3Cc3ccnc(F)c3)n2)c1 (stereo not drawn) [Compound B107, (E)-N-(4-(2-(1-(1-cyanoethyl)-1H-imidazol-4-yl)vinyl)thiazol-2-yl)-1-((2-fluoropyridin-4-yl)methyl)-1H-pyrrole-2-carboxamide] | > 25 | > 25 | > 25 | > 25 | 0.476 | > 25 | 0.55 | 18.8 | 35.4 | 0.33 | >52.5 | >52
3 | N#CCCn1cnc(/C=C/c2csc(NC(=O)c3cccn3Cc3ccnc(F)c3)n2)c1 [Compound B108, (E)-N-(4-(2-(1-(2-cyanoethyl)-1H-imidazol-4-yl)vinyl)thiazol-2-yl)-1-((2-fluoropyridin-4-yl)methyl)-1H-pyrrole-2-carboxamide] | > 25 | > 25 | > 25 | > 25 | 6.04 | > 25 | 0.43 | 23.9 | 55.7 | 0.69 | >4.14 | >4.1
4 | NC(=O)CCn1cnc(/C=C/c2csc(NC(=O)c3cccn3Cc3ccnc(F)c3)n2)c1 [Compound B109, (E)-N-(4-(2-(1-(3-amino-3-oxopropyl)-1H-imidazol-4-yl)vinyl)thiazol-2-yl)-1-((2-fluoropyridin-4-yl)methyl)-1H-pyrrole-2-carboxamide] | > 25 | > 25 | > 25 | > 25 | > 25 | > 25 | 10.2 | 60.4 | 60.2 | 5.04 | <=>1.00 | <=>1.0
5 | CC(CC#N)n1cnc(/C=C/c2csc(NC(=O)c3cccn3Cc3ccnc(F)c3)n2)c1 (stereo not drawn) [Compound B110, (E)-N-(4-(2-(1-(1-cyanopropan-2-yl)-1H-imidazol-4-yl)vinyl)thiazol-2-yl)-1-((2-fluoropyridin-4-yl)methyl)-1H-pyrrole-2-carboxamide] | > 25 | > 25 | > 25 | > 25 | 2.21 | > 25 | 0.38 | 32.4 | 44.9 | 0.51 | >11.3 | >11
6 | CC(C(N)=O)n1cnc(/C=C/c2csc(NC(=O)c3cccn3Cc3ccnc(F)c3)n2)c1 (stereo not drawn) [Compound B113, (E)-N-(4-(2-(1-(1-amino-1-oxopropan-2-yl)-1H-imidazol-4-yl)vinyl)thiazol-2-yl)-1-((2-fluoropyridin-4-yl)methyl)-1H-pyrrole-2-carboxamide] | > 25 | > 25 | > 25 | > 25 | > 25 | > 25 | 7.08 | 69.7 | 68.2 | 3.11 | <=>1.00 | <=>1.0
7 | O=C(Nc1nc(/C=C/c2c[nH]cn2)cs1)c1cccn1Cc1ccnc(F)c1 [Compound B114, (E)-N-(4-(2-(1H-imidazol-4-yl)vinyl)thiazol-2-yl)-1-((2-fluoropyridin-4-yl)methyl)-1H-pyrrole-2-carboxamide] | > 25 | > 25 | > 25 | > 25 | 5.26 | > 25 | 30.7 | 27.3 | 59.3 | 43.4 | >4.76 | >4.8

More lines, main results first:

Row | IC50 [1] [µM] | EC50 [2] [µM] | IC50 [3] [µM] | EC50 [4] [µM] | IC50 [5] [µM] | IC50 [6] [µM] | Liver Microsome Stability (Multiple Species): Human - % Remaining after 30 min w/NADPH [7] [%] | Liver Microsome Stability (Multiple Species): Rat - % Remaining after 30 min w/NADPH [8] [%] | Liver Microsome Stability (Multiple Species): Mouse - % Remaining after 30 min w/NADPH [9] [%] | Liver Microsome Stability (Multiple Species): Monkey - % Remaining after 30 min w/NADPH [10] [%] | Structure (SMILES) | 24 hr Dox Inducible TNFaFLGluc 293FRT/TO: TNF/PD1 [1] | 24 hr Dox Inducible IL2FLGluc 293FRT/TO: IL2/PD1 [3]
8 | > 25 | > 25 | > 25 | > 25 | > 25 | > 25 | 9.45 | 75.4 | 61.7 | 5.79 | CC(CC(N)=O)n1cnc(/C=C/c2csc(NC(=O)c3cccn3Cc3ccnc(F)c3)n2)c1 (stereo not drawn) [Compound B111, (E)-N-(4-(2-(1-(4-amino-4-oxobutan-2-yl)-1H-imidazol-4-yl)vinyl)thiazol-2-yl)-1-((2-fluoropyridin-4-yl)methyl)-1H-pyrrole-2-carboxamide] | ⇔1.00 | <=>1.0
9 | > 25 | > 25 | > 25 | > 25 | 0.217 | > 25 | 1.7 | 41.8 | 66.5 | 1.11 | N#CCn1cnc(/C=C/c2csc(NC(=O)c3cccn3Cc3ccnc(F)c3)n2)c1 [Compound B112, (E)-N-(4-(2-(1-(cyanomethyl)-1H-imidazol-4-yl)vinyl)thiazol-2-yl)-1-((2-fluoropyridin-4-yl)methyl)-1H-pyrrole-2-carboxamide] | >115 | >110
10 | > 25 | > 25 | > 25 | > 25 | > 25 | > 25 | 12.8 | 30 | 70.7 | 11.5 | NC(=O)Cn1cnc(/C=C/c2csc(NC(=O)c3cccn3Cc3ccnc(F)c3)n2)c1 [Compound B115] | <=>1.00 | <=>1.0
